In PubChem BioAssay (NCI):
Values joined by “and” are separate entries in the source; they are usually repeats but may differ in a detail not shown here. Identical values can stand only once.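 Method: 48-hour compound exposure of cells in 96-well plates, five concentrations, linear interpolation of endpoints. Abbreviation: GI50, concentration required for 50% inhibition of growth. TGI marks complete inhibition of growth.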

System: SF-295 CNS
Test: NCI anticancer screen, dose series, 48 h

SMILES	TGI	GI50 [µM]
Clc1cccc(-c2sc(-c3cccs3)cc2Cc2cccs2)c1	> 10 µM	
c1ccc(C2=NC3OC2c2ccccc23)cc1 (stereo not drawn)	> 10 µM	
O=c1oc2ccc3ccccc3c2cc1-c1cn2ccsc2n1	> 100 µM	
CCOC(=O)CSc1nc(N)c2c(-c3ccccc3)c3c(nc2n1)CCCC3	> 100 µM	
COC(=O)/C=C(/C=C1/C(C#N)=C(N)N(c2ccc(Cl)cc2)C1(C)/C(=C\C(=O)OC)C(=O)OC)C(=O)OC (stereo not drawn)	> 100 µM	
Cc1c2ccnc(C(N)=O)c2c(C)c2c1[nH]c1ccccc12	25.6 µM and 22.3 µM	4.37
Cc1ccccc1-c1nc2c(N)nc(N)nc2nc1N	> 100 µM	
O=c1c2c3c(sc2[nH]c(=S)n1-c1ccccc1)CCCc1ccc([N+](=O)[O-])cc1-3	> 100 µM	
CCOC(=O)c1c(N2CCCC2)[nH]c(=O)c(C(c2ccc(OC)cc2)c2c(O)c(C(=O)OCC)c(N3CCCC3)[nH]c2=O)c1O	> 100 µM	
CC1CC(N2CCOCC2)=Nc2ccccc2N1C (stereo not drawn)	> 100 µM	
CCOC1C=CC(=O)C(CO)O1 (stereo not drawn)	33.2 µM	
COC(=O)CC(=O)OSc1ccccc1	96.3 µM	
CC(C)C(Br)CCC1=CCC(Br)(Br)C1 (stereo not drawn)	33.4 µM	
Cc1cc([N+](=O)[O-])c(C)c2c1[nH]c1ccc(Cl)cc12	> 100 µM	
COCOc1ccc(C(=O)Oc2cccc3c2OC(C)(C)O3)c(OCOC)c1	> 100 µM	
COC(=O)CNC(=O)C(CSC(=O)OCC1c2ccccc2-c2ccccc21)NC(=O)CCC(NC(=O)OCC1c2ccccc2-c2ccccc21)C(=O)OC (stereo not drawn)	31.2 µM	
COc1ccc(CNc2cnc3ccc(N)cc3n2)cc1	> 100 µM	
COc1cccc(C2c3cc4c(cc3OC(O)C2C)OCO4)c1OC (stereo not drawn)	17.3 µM	

System: M14 melanoma
Test: NCI anticancer screen, dose series, 48 h

SMILES	TGI [µM]
COc1ccc2ccc3oc(=O)c(C)cc3c2c1	> 100
CCCCCCN(CCCCCC)C(=S)N/N=C(\C)c1ccccn1	3.29
CN(C)c1nc(Oc2nc(N(C)C)nc(N(C)C)n2)nc(N(C)C)n1	> 100
O=c1c(F)cn2c(=O)n1CCCCCCCn1c(=O)c(F)cn(c1=O)CCCCCCC2	> 100
O=C(ON=C1c2ccccc2C(Br)C(Br)c2ccccc21)c1ccccc1 (stereo not drawn)	32.6
CN(C)CCn1c(=O)c2ccc(NCCCN(C)CCCNc3ccc4c(=O)n(CCN(C)C)c(=O)n5c6ccc(O)cc6c(=O)c3c45)c3c(=O)c4cc(O)ccc4n(c1=O)c23	0.805
Cn1c2ccccc2n2c3ncccc3c(=O)c(C#N)c12	> 100
S=C(Cc1ccc2c(c1)Sc1ccccc1O2)N1CCOCC1	> 100
C[n+]1cc2cc(O)c(O)cc2c2ccc3cc(O)c(O)cc3c21	> 100
COc1ccc(N=Nc2c(-c3c(OC)cc4occc4c3OC)[nH]c(=O)c(C#N)c2C)cc1	> 100
O=C(/C=C/c1ccc(Cl)cc1)Oc1ccc(C=C2CCC/C(=C\c3ccc(OC(=O)/C=C/c4ccc(Cl)cc4)cc3)C2=O)cc1	> 100
c1ccc2c(c1)SCCCS2	> 100
COc1ccc2c(c1)c1c(n2CCN2CCCCC2)-c2cccc(OC)c2CC1	25
O=[N+]([O-])c1ccc(C[P+]2(c3ccccc3)CCCCC2)cc1	> 100
COc1ccc2nc(NC(=O)/C(C#N)=C/c3ccccc3)sc2c1	> 100
Cc1c(C)n(-c2ccccc2)c2nc(S(C)=O)nc(S(C)=O)c12 (stereo not drawn)	6.45
CC1(C)CC(=O)C2=C(C1)C(c1ccccc1Cl)C1C(=O)CC(C)(C)CC1(O)O2 (stereo not drawn)	> 100

SMILES	TGI [µM]
Cn1nc(-c2ccc(S(=O)(=O)/N=C(\NN)Nc3ccc(Cl)cc3)s2)cc1C(F)(F)F	31.5
C[C@]12CCC3[C@@H](CCC45OC4C(=O)CC[C@]35C)C1Cc1cnn(-c3ccc(F)cc3)c1N2 (stereo partly drawn)	> 100
CCc1c(O)cc(=O)oc1-c1ccc(OC)c(OC)c1	> 100
Cc1ccc2c(c1C)C(=O)C1(Cc3cc4c(cc3C1=O)CCC4)C2 (stereo not drawn)	> 100
CCCCI(O)OS(=O)(=O)c1ccc(C)cc1	> 100
O=C(CCc1cc(O)cc(O)c1)NCCc1cc(OCc2ccccc2)cc(OCc2ccccc2)c1	34.8
Clc1cccc(-c2sc(-c3cccs3)cc2Cc2cccs2)c1	> 10
c1ccc(C2=NC3OC2c2ccccc23)cc1 (stereo not drawn)	> 10
O=c1oc2ccc3ccccc3c2cc1-c1cn2ccsc2n1	60.5
CCOC(=O)CSc1nc(N)c2c(-c3ccccc3)c3c(nc2n1)CCCC3	> 100
COC(=O)/C=C(/C=C1/C(C#N)=C(N)N(c2ccc(Cl)cc2)C1(C)/C(=C\C(=O)OC)C(=O)OC)C(=O)OC (stereo not drawn)	39.1
Cc1c2ccnc(C(N)=O)c2c(C)c2c1[nH]c1ccccc12	> 100
Cc1ccccc1-c1nc2c(N)nc(N)nc2nc1N	> 100
O=c1c2c3c(sc2[nH]c(=S)n1-c1ccccc1)CCCc1ccc([N+](=O)[O-])cc1-3	> 100
CCOC(=O)c1c(N2CCCC2)[nH]c(=O)c(C(c2ccc(OC)cc2)c2c(O)c(C(=O)OCC)c(N3CCCC3)[nH]c2=O)c1O	> 100
CC1CC(N2CCOCC2)=Nc2ccccc2N1C (stereo not drawn)	> 100
CCOC1C=CC(=O)C(CO)O1 (stereo not drawn)	31.8
